In patent US20220202912A1, “Polypeptides in Preparation of Drugs for Treatment or Prevention of Rheumatoid Arthritis” (priority 2011, published 2022):
Where no end group is shown, it is not given here.

Columns and labels:
[1] = test system: macrophages (PMA-induced U937 cells); experiment: flow cytometry macrophage apoptosis test (AV-FITC/PI); type: cell-based, Human; settings: 24 h; Adalimumab 50 μg/mL, mPEG-SC20k-HM-3 13.5 μmol/L
Experimental: Human U937 cells are added to a 6-well plate (1.5×10^5 cells/mL), PMA (25 ng/mL) is added to perform induction for 48 h for differentiation into macrophages, and the macrophages are added to the positive drug Adalimumab group (50 μg/mL), the HM-3 control group (13.5 μmol/L), the mPEG-SC20k-HM-3 group (13.5 μmol/L), isovolumetric PBS is added to the blank group and the model group, and the cells are incubated in a CO2 incubator at 37° C. for 24 h. For the H2O2 group (3%, 20 μL/mL volume) test, hydrogen peroxide is added in the first half hour to normal cells for apoptosis induction control.
1000 g of solution is centrifuged for 5 min, and supernatant is discarded. Washing is performed once with PBS.
The apoptosis is tested on the flow cytometer according to the instructions of the AV-FITC/PI apoptosis kit.

[2] = test system: λ-carrageenan acute inflammation; experiment: acute toe swelling in carrageenan-induced transgenic TNF-luc mice; type: in vivo, BALB/c transgenic TNF-luc mice; settings: Adalimumab 8 mg/kg, mPEG-SC20k-HM-3 20 mg/kg sc
Experimental: Before modeling, 8 animals are randomly divided into 4 groups (n=2), a normal group, a model group, a positive drug group and a test treatment group. One hour before modeling, the normal group and the model group are hypodermically injected with normal saline (0.2 mL/20 g of body weight) respectively; the positive drug group is hypodermically injected with Adalimumab (8 mg/kg of body weight), 15 d/time, once; and the test treatment group is hypodermically injected with mPEG-SC20k-HM-3 (20 mg/kg of body weight), 2 d/time, twice. The initial ankle width, foot palm width and toe thickness of the left foot are measured as initial values.
Modeling starts at hour 0, 50 μL of 1% carrageenan is hypodermically injected into the bottom of left toe of transgenic TNF-luc mice, and the ankle swelling degree, foot palm swelling degree and toe swelling degree of each group of mice are measured with a vernier caliper at […], hour 1, hour 3, hour 5, hour 7, hour 9, hour 12, hour 24, hour 48, hour 72 and hour 96 respectively. Method for calculating toe swelling degree:
Swelling degree of left ankle (cm)=swelling thickness of left ankle during measurement−thickness of left ankle during initial measurement.
Swelling degree of left foot palm (cm)=swelling thickness of left foot palm during measurement−thickness of left foot palm during initial measurement.
Swelling degree of left toe (cm)=swelling thickness of left toe during measurement−thickness of left toe during initial measurement.

Row | Substance | rate of early apoptosis of macrophages [1] [%] | rate of late apoptosis of macrophages [1] [%] | left ankle swelling ([2]; 1 h) [cm] | left foot (palm) swelling ([2]; 1 h) [cm] | left toe swelling ([2]; 1 h) [cm] | left ankle swelling ([2]; 3 h) [cm] | left foot (palm) swelling ([2]; 3 h) [cm] | left toe swelling ([2]; 3 h) [cm] | left ankle swelling ([2]; 5 h) [cm] | left foot (palm) swelling ([2]; 5 h) [cm] | left toe swelling ([2]; 5 h) [cm] | left ankle swelling ([2]; 7 h) [cm] | left foot (palm) swelling ([2]; 7 h) [cm] | left toe swelling ([2]; 7 h) [cm] | left ankle swelling ([2]; 9 h) [cm] | left foot (palm) swelling ([2]; 9 h) [cm] | left toe swelling ([2]; 9 h) [cm] | left ankle swelling ([2]; 12 h) [cm] | left foot (palm) swelling ([2]; 12 h) [cm] | left toe swelling ([2]; 12 h) [cm] | further results
1 | mPEG-SC20k-Ile-Val-Arg-Arg-Ala-Asp-Arg-Ala-Ala-Val-Pro-Gly-Gly-Gly-Gly-Arg-Gly-Asp ({mPEG‑SC 20k}-IVRRADRAAVPGGGGRGD) [polypeptide III, No. 3] | 28.0 | 14.7 | 0.060 ± 0.045 | 0.101 ± 0.027 | 0.132 ± 0.054 | 0.079 ± 0.052 | 0.092±0.054 | 0.114 ± 0.025 | 0.117 ± 0.033 | 0.125 ± 0.035 | 0.146 ± 0.003 | 0.074 ± 0.014 | 0.116 ± 0.034 | 0.174 ± 0.065 | 0.061 ± 0.013 | 0.086 ± 0.008 | 0.124 ± 0.014 | 0.055 ± 0.018 | 0.091 ± 0.004 | 0.113 ± 0.027 | left ankle swelling ([2]; 24 h): 0.066 ± 0.003 cm; left foot (palm) swelling ([2]; 24 h): 0.107 ± 0.010 cm; left toe swelling ([2]; 24 h): 0.136 ± 0.011 cm; left ankle swelling ([2]; 48 h): 0.051±0.044 cm; left foot (palm) swelling ([2]; 48 h): 0.105 ± 0.010 cm; left toe swelling ([2]; 48 h): 0.126 ± 0.031 cm; left ankle swelling ([2]; 72 h): 0.032±0.074 cm; left foot (palm) swelling ([2]; 72 h): 0.101 ± 0.016 cm; left toe swelling ([2]; 72 h): 0.094±0.034 cm; left ankle swelling ([2]; 96 h): 0.032±0.042 cm; left foot (palm) swelling ([2]; 96 h): 0.076±0.006 cm; left toe swelling ([2]; 96 h): 0.084±0.040 cm
2 | Adalimumab [reference compound] | 14.2 | 15.2 | 0.027 ± 0.018 | 0.042 ± 0.035 | 0.094 ± 0.054 | 0.008 ± 0.048 | 0.071 ± 0.016 | 0.115 ± 0.018 | 0.067 ± 0.010 | 0.092 ± 0.014 | 0.150 ± 0.028 | 0.064 ± 0.006 | 0.094 ± 0.011 | 0.126 ± 0.014 | 0.045 ± 0.004 | 0.088 ± 0.025 | 0.126 ± 0.021 | 0.050 ± 0.003 | 0.090 ± 0.031 | 0.114 ± 0.025 | left ankle swelling ([2]; 24 h): 0.086 ± 0.031 cm; left foot (palm) swelling ([2]; 24 h): 0.132 ± 0.006 cm; left toe swelling ([2]; 24 h): 0.235 ± 0.134 cm; left ankle swelling ([2]; 48 h): 0.105 ± 0.075 cm; left foot (palm) swelling ([2]; 48 h): 0.152 ± 0.074 cm; left toe swelling ([2]; 48 h): 0.264 ± 0.122 cm; left ankle swelling ([2]; 72 h): 0.096 ± 0.051 cm; left foot (palm) swelling ([2]; 72 h): 0.150 ± 0.066 cm; left toe swelling ([2]; 72 h): 0.238 ± 0.113 cm; left ankle swelling ([2]; 96 h): 0.076 ± 0.034 cm; left foot (palm) swelling ([2]; 96 h): 0.133 ± 0.061 cm; left toe swelling ([2]; 96 h): 0.174 ± 0.102 cm
